Data on twelve compounds can be found in ChEMBL document CHEMBL1201862, “PubChem BioAssay data set” (2004).

Assay in all cases: DTP human tumour cell line panel, 48 h
The test system of experiment [1] is LOX IMVI.
In experiment [2] the test system is T47D.
In experiment [3] the test system is IGROV-1.
Experiment [4] relates to MCF7.
For experiment [5], the system named is U-251.
The subject of experiment [6] is SK-OV-3.
Experiment [7] concerns SF-539.
For experiment [8], the system named is SK-MEL-5.
The subject of experiment [9] is SF-268.
Experiment [10] deals with HCT-116.
Experiment [11] deals with K562.
The subject of experiment [12] is A498.
Experiment [13] relates to RXF 393.
Experiment [14] concerns M14.
The subject of experiment [15] is OVCAR-4.
Experiment [16] concerns SW-620.
Experiment [17] deals with MDA-MB-231.
The test system of experiment [18] is MOLT-4.
In experiment [19] the test system is Malme-3M.
In experiment [20] the test system is MDA-N.

Structures are written as SMILES.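 Results reflect a 48-hour exposure of cells in 96-well plates to compound at five concentrations. GI50 = concentration required for 50% inhibition of growth.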 Activity calls are given as the source filed them. Cut-off read from the data, not from the text of the source: active = GI50 up to about 1.1 µM and inactive = higher.

Take `C=CCN1C(=O)/C(=C/c2ccccc2)N=C1SC/C=C/C`: the GI50 in experiment [1] was 49.1 µM (inactive); in experiment [2], 20.2 µM (inactive); in experiment [3], > 100 µM (inactive); in experiment [4], 33.1 µM (inactive); in [5] it was 48.1 µM (inactive); in experiment [6], > 100 µM (inactive). Besides, the GI50 in [7] is > 100 µM (inactive); in experiment [8], 18.4 µM (inactive); in experiment [9] it was 57.9 µM (inactive); in experiment [10], 34.5 µM (inactive); in experiment [11], 0.0146 µM (active); in experiment [12], 43.7 µM (inactive). The GI50 in experiment [13] is 15.2 µM (inactive); in [14], 71.1 µM (inactive); in experiment [15], 31.2 µM (inactive); in experiment [16], 46.1 µM (inactive); in experiment [17], 86.7 µM (inactive).

As for `CCOC(=O)/C(C#N)=C/c1ccnc2ccccc12`, the GI50 was 63.5 µM (inactive) in [18]; 15.6 µM (inactive) in [1]; > 100 µM (inactive) in [2]; 40.2 µM (inactive) in experiment [3]; 37.1 µM (inactive) in [19]; > 100 µM (inactive) in experiment [5]. The GI50 in experiment [6] is > 100 µM (inactive); in experiment [7] it was 20.2 µM (inactive); in [8] it was 31.7 µM (inactive); in experiment [9], > 100 µM (inactive); in experiment [10] it was 2.19 µM (inactive); in experiment [20], > 100 µM (inactive). In addition, the GI50 in experiment [12] was > 100 µM (inactive); in experiment [13], > 100 µM (inactive); in [14] it was 56.9 µM (inactive); in [15], > 100 µM (inactive); in experiment [16], 9.79 µM (inactive); in [17] it was 83.9 µM (inactive).

In the case of `CC(=O)Nc1ccc2cc3c(nc2n1)c1cccnc1n3S(=O)(=O)c1ccccc1`, the GI50 in experiment [18] was > 100 µM (inactive); in experiment [1] it was 2.66 µM (inactive); in [3], > 100 µM (inactive); in experiment [4], > 100 µM (inactive); in [19], > 100 µM (inactive); in [5], > 100 µM (inactive). In addition, the GI50 in experiment [6] was > 100 µM (inactive); in [8], > 100 µM (inactive); in experiment [9], > 100 µM (inactive); in experiment [10] it was 1.36 µM (inactive); in experiment [11], > 100 µM (inactive); in experiment [20], > 100 µM (inactive). Further, the GI50 in experiment [12], in experiment [13], in experiment [14], in experiment [15], in [16] and in experiment [17] was > 100 µM (inactive) in each case.

On to `N#Cc1c2c(c(Nc3ccc(Cl)cc3)n3c1nc1ccccc13)CCCC2`, for which the GI50 in [18] is 3.18 µM (inactive); in experiment [1] it was > 63.5 µM (inactive); in [2] it was 33.1 µM (inactive); in experiment [3] it was 47.4 µM (inactive); in experiment [4], 7.59 µM (inactive); in [19], > 67.6 µM (inactive). Besides, the GI50 was 18.5 µM (inactive) in [5]; 54.7 µM (inactive) in experiment [6]; 21.1 µM (inactive) in [7]; 20.5 µM (inactive) in [8]; 44 µM (inactive) in [9]; 8.65 µM (inactive) in experiment [10]. Further, the GI50 in experiment [11] was 4.46 µM (inactive); in experiment [12], > 94.6 µM (inactive); in experiment [13] it was 33.7 µM (inactive); in experiment [14], > 83.2 µM (inactive); in experiment [15], 16.2 µM (inactive); in experiment [16] it was > 61 µM (inactive). Besides, the GI50 in experiment [17] was > 86.9 µM (inactive).

For the compound `Cc1c(-c2ccccc2)n(C)c2cn[nH]c(=O)c12`, the GI50 in experiment [18] was 32.7 µM (inactive); in [1] it was 18.7 µM (inactive); in [3], 70 µM (inactive); in experiment [4] it was 31.5 µM (inactive); in experiment [19] it was 42.6 µM (inactive); in experiment [5] it was 32.3 µM (inactive). In addition, the GI50 in experiment [6] is 27.1 µM (inactive); in [7] it was 45 µM (inactive); in experiment [8], 17.3 µM (inactive); in [9] it was 37.5 µM (inactive); in experiment [10], 35.9 µM (inactive); in [11], 47.3 µM (inactive). For the same compound, the GI50 in experiment [20] is 33.5 µM (inactive); in experiment [12], 30.4 µM (inactive); in experiment [14], 42.5 µM (inactive); in [16], 47.1 µM (inactive); in experiment [17], 17.9 µM (inactive).

With `O=C(Nc1ccc(Cl)cc1)NS(=O)(=O)c1c(-c2ccccc2)oc2ccccc2c1=O`, the GI50 in [18] was 98.6 µM (inactive); in [1] it was 9.25 µM (inactive); in [2] it was 48 µM (inactive); in experiment [3], 83 µM (inactive); in experiment [19] it was > 100 µM (inactive); in experiment [5] it was 58.2 µM (inactive). Further, the GI50 in [6] is > 100 µM (inactive); in experiment [7], 47.9 µM (inactive); in [8], > 100 µM (inactive); in [9] it was > 100 µM (inactive); in experiment [10] it was 92.7 µM (inactive); in experiment [11] it was 48 µM (inactive). Besides, the GI50 in experiment [20] is 44.7 µM (inactive); in experiment [12], 33 µM (inactive); in [13] it was > 100 µM (inactive); in experiment [15] it was > 100 µM (inactive); in [16] it was > 100 µM (inactive).

Take `CN(C)Nc1cc(=O)[nH]c(=O)[nH]1`: the GI50 in experiment [18], in experiment [1], in [3], in experiment [4], in [19] and in experiment [5] was > 100 µM (inactive) throughout. In addition, the GI50 in [7], in [8], in experiment [9], in [10], in [11] and in experiment [20] was > 100 µM (inactive) in each case. Besides, the GI50 in experiment [12], in experiment [13], in experiment [14], in [15], in [16] and in experiment [17] was > 100 µM (inactive) throughout.

With `O=C(/C=C/c1ccc(O)cc1)c1ccc2c(c1)OCO2`, the GI50 in [18] was 13.5 µM (inactive); in [1] it was 18.7 µM (inactive); in [2], 26.6 µM (inactive); in [3], 15.5 µM (inactive); in experiment [19] it was 31.8 µM (inactive); in experiment [5], 18.4 µM (inactive). The GI50 in [6] is 26.1 µM (inactive); in experiment [7], 13.8 µM (inactive); in [8] it was 16 µM (inactive); in experiment [9], 23.8 µM (inactive); in experiment [10] it was 12.5 µM (inactive); in experiment [11], 20.6 µM (inactive). Also, the GI50 in [20] is 24 µM (inactive); in experiment [12], 23.8 µM (inactive); in experiment [13] it was 19.3 µM (inactive); in experiment [14] it was 18.5 µM (inactive); in [15] it was 21.1 µM (inactive); in [16], 19.1 µM (inactive). The GI50 in [17] is 17.5 µM (inactive).

`CCN(CCCN(CC)C(=O)N[C@@H](Cc1ccccc1)C(=O)NC)C(=O)N[C@@H](Cc1ccccc1)C(=O)NC`: the GI50 in experiment [1], in [2], in [19], in experiment [5], in [6] and in experiment [7] was > 100 µM (inactive) each time. For the same compound, the GI50 in experiment [8], in experiment [9], in [10], in [20], in experiment [12] and in experiment [13] was > 100 µM (inactive) in each case. The GI50 in experiment [14], in experiment [15], in experiment [16] and in experiment [17] was > 100 µM (inactive) each time.

Take `COc1ccc(C2=Nc3c(nc(OC)[nH]c3=O)NC(c3ccccc3)C2)cc1` (centres undefined): the GI50 in [18] is 38.6 µM (inactive); in experiment [1] it was 26.6 µM (inactive); in experiment [3] it was 30.1 µM (inactive); in [4], 21.9 µM (inactive); in experiment [19] it was > 100 µM (inactive); in experiment [5] it was 24.8 µM (inactive). In addition, the GI50 in experiment [7] was 28.1 µM (inactive); in experiment [8], 18.4 µM (inactive); in [10] it was 28.4 µM (inactive); in experiment [11] it was 25.2 µM (inactive); in [20], 27 µM (inactive); in experiment [12], 32.6 µM (inactive). For the same compound, the GI50 in experiment [13] is 29.7 µM (inactive); in experiment [14], 27.3 µM (inactive); in experiment [16], 24.1 µM (inactive); in experiment [17], 20.7 µM (inactive).

On to `CCOC(=O)[C@@H]1C[C@@H]1c1ccc(O)c(O)c1`, for which the GI50 is 6.18 µM (inactive) in [18]; 16 µM (inactive) in experiment [2]; 35.3 µM (inactive) in experiment [3]; 16.9 µM (inactive) in experiment [4]; 49.2 µM (inactive) in [19]; 72.1 µM (inactive) in [5]. Moreover, the GI50 in experiment [6] was 44.8 µM (inactive); in [7] it was 20.6 µM (inactive); in [8], 14.4 µM (inactive); in experiment [9], 30.8 µM (inactive); in [10] it was 16.3 µM (inactive); in experiment [11] it was 13.8 µM (inactive). The GI50 in experiment [20] is 17.1 µM (inactive); in experiment [13] it was 21.1 µM (inactive); in experiment [14] it was 11 µM (inactive); in experiment [16], 14.3 µM (inactive); in experiment [17] it was 11 µM (inactive).

For the compound `O=C(Nn1c(-c2cccs2)nc2ccc(I)cc2c1=O)c1ccccc1`, the GI50 was 41.3 µM (inactive) in experiment [18]; 21.4 µM (inactive) in experiment [1]; 20.2 µM (inactive) in experiment [3]; 24.7 µM (inactive) in experiment [5]; 21.9 µM (inactive) in experiment [8]; 34.4 µM (inactive) in experiment [9]. Further, the GI50 was 35.3 µM (inactive) in experiment [10]; 43.9 µM (inactive) in experiment [20]; 35.4 µM (inactive) in [13]; 36.3 µM (inactive) in experiment [14]; 23 µM (inactive) in experiment [15]; 71.6 µM (inactive) in experiment [16].

Usually GI50 stands for the concentration at which growth is held to half of that of the control.
